The target of assay [1] is T1, hTAS2R16 (Homo sapiens, UniProt Q9NYV7).
T1 construct: expressed in transfected cells; host or cells: HEK293T
T1 sequence (Q9NYV7 1-291): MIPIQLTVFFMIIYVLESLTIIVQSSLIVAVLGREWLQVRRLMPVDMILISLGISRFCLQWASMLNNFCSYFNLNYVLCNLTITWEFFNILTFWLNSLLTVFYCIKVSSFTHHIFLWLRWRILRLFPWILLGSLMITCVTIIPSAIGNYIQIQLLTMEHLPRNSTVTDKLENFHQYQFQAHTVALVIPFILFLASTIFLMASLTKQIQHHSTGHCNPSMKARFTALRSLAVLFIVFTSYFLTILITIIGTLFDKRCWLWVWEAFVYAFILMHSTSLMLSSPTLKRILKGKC
The assay is described as follows: Ca2+ response of hTAS2R16-expressing HEK293T cells to bitter ligands in absence and presence of umami substances (Figure 1; fura-2 F340/F380 imaging / cell-based assay). The note with it: for Ca2+ response of cells expressing TAS2R16 on stimulation with ligand: Figure 1D,E; for inhibition of Ca2+ response to arbutin: 5 mM arbutin; for inhibition of Ca2+ response to arbutin / inhibition of Ca2+ response to phenyl β-D-glucopyranoside: MSG 80 mM, IMP 20 mM, L-theanine 80 mM; for inhibition of Ca2+ response to arbutin / reduction of intracellular Ca2+ influx evoked by salicin / inhibition of Ca2+ response to phenyl β-D-glucopyranoside: Glu-Glu 6 mM, Gly-Gly 6 mM; for reduction of intracellular Ca2+ influx evoked by salicin: 10 mM salicin, MSG 10 and 80 mM, IMP 10 and 20 mM, L-theanine 10 and 80 mM, probenecid 0.1 and 0.3 mM. The protocol: We first verified if non-peptide umami substances affect the downstream signaling mechanism, such as changes in intracellular Ca^2+ of the human bitter taste receptor. […] The increase in fluorescence intensity ratio (F340/F380) with 10 mM salicin was expressed as 100. […] In addition to salicin, hTAS2R16 also recognizes bitter sugars such as phenyl β-D-glucopyranoside and arbutin, a glycosylated hydroquinone extracted from the bearberry plant in the genus Arctostaphylos.
(A) Chemical structures of tested compounds. Summarized data (B) and representative traces (C) showing responses of HEK293T cells co-expressing hTAS2R16 and Gα16gust44 to 10 mM salicin in the absence and presence of umami substances in a cell-based assay. (D,E) Representative ratiometric images of fura-2-loaded hTAS2R16-expressing cells in response to the other ligands, 5 mM arbutin (D) or phenyl β-D-glucopyranoside (E), in the presence of umami substances. The data were normalized as percentages to the maximal signal obtained with the ligands. The color scale indicates the F340/F380 ratio. Scale bar: 11.04 μm. Data are presented as means ± standard error of the mean (SEM) of at least three separate experiments. * p < 0.05, ** p < 0.01, and *** p < 0.001 vs. the 0 mM sample group by Student’s t-test.
The umami substances-induced changes in the cytosolic Ca^2+ concentration were measured using a FlexStation III microplate reader (Molecular Devices, Sunnyvale, CA, USA). HEK293T cells transfected with hTAS2R16 were seeded onto 96-well black-wall CellBind surface plates (Corning, NY, USA) for 18–24 h before use. […] The cells were incubated in the dark for 30 min at 37 °C, and then for 15 min at 27 °C in assay buffer consisting of Calcium-4 (FLIPR Calcium 4 Assay Kit, Molecular Devices) and probenecid or the umami compounds. […] The relative changes in cell Ca^2+ were plotted as ΔF/F0 on the y-axis, where ΔF is the change in Calcium-4 fluorescence intensity at each time point and F0 is the fluorescence intensity before treatment. The relative response induced by 10 mM salicin was assigned a value of 100.
Cells were seeded onto 96-well black-wall imaging plates (BD Falcon Labware) for 18–26 h prior to their use in an experiment. […] The cells were rinsed with the buffer, incubated in probenecid or sample for 30 min, and then treated with solution containing the ligand. The Fura-2AM-induced fluorescence intensity (excitation at 340 and 380 nm) was measured at emission wavelength of 510 nm using a computer-controlled filter changer (Lambda DG4; Sutter, San Rafael, CA, USA), an Andor Luca CCD camera (Andor Technology, Belfast, UK), and an inverted fluorescence microscope (IX-71; Olympus, Tokyo, Japan). Images were obtained at 3-s intervals and analyzed using MetaFluor software (Molecular Devices, Sunnyvale, CA, USA).

Assay [2] addresses T1, hTAS2R16. The assay is described as follows: Cellular Ca2+ response, cell-based assay (Calcium-4, FlexStation III) in HEK293T cells co-expressing wild-type hTAS2R16 and G16αgust44. The protocol:
(§1) HEK293T cells were purchased from American Type Culture Collection (ATCC; Manassas, VA, USA) and cultured as described previously. The plasmids hTAS2R16 and G16αgust44 were constructed as described previously. G16αgust44 and hTAS2R16 were cloned into a cytomegalovirus promoter-based vector and expressed constitutively. Point mutants of N96T and P44T on hTAS2R16 clone and DNA sequencings were performed by Macrogen (Geumcheon-gu, Seoul, Korea). The hTAS2R16 or point mutant expression plasmid was co-transfected with G16αgust44 expression plasmid (4:1) into HEK293T cells using Lipofectamine 2000 (Invitrogen, Carlsbad, CA, USA).
(§2) The umami substances-induced changes in the cytosolic Ca^2+ concentration were measured using a FlexStation III microplate reader (Molecular Devices, Sunnyvale, CA, USA). HEK293T cells transfected with hTAS2R16 were seeded onto 96-well black-wall CellBind surface plates (Corning, NY, USA) for 18–24 h before use. […] The cells were incubated in the dark for 30 min at 37 °C, and then for 15 min at 27 °C in assay buffer consisting of Calcium-4 (FLIPR Calcium 4 Assay Kit, Molecular Devices) and probenecid or the umami compounds. Following treatment, the fluorescence intensity (excitation, 486 nm; emission, 525 nm) of the cell was measured. The relative changes in cell Ca^2+ were plotted as ΔF/F0 on the y-axis, where ΔF is the change in Calcium-4 fluorescence intensity at each time point and F0 is the fluorescence intensity before treatment. The relative response induced by 10 mM salicin was assigned a value of 100.

For assay [3], the system named is umami taste. The settings on record: cited from earlier work.
A further assay addresses T2, hTAS2R16 N96T (Homo sapiens, UniProt Q9NYV7, N96T).
T2 construct: expressed in transfected cells; host or cells: HEK293T
T2 sequence (Q9NYV7 1-291 N96T): T1 sequence (Q9NYV7 1-291) with N96T
The experiment in a line: Cellular Ca2+ response, cell-based assay in HEK293T cells expressing probenecid-insensitive mutant hTAS2R16 N96T. The protocol:
as §1, §2

Assay [4] concerns umami taste. The assay is described as follows: Human sensory evaluation of umami taste (literature). The format is in vivo. The settings on record: L-theanine vs MSG; from cited thresholds.
For another assay, the target named is T3, hTAS2R16 P44T (Homo sapiens, UniProt Q9NYV7, P44T).
T3 construct: expressed in transfected cells; host or cells: HEK293T
T3 sequence (Q9NYV7 1-291 P44T): T1 sequence (Q9NYV7 1-291) with P44T
The assay is described as follows: Cellular Ca2+ response, cell-based assay in HEK293T cells expressing probenecid-insensitive mutant hTAS2R16 P44T. Here is the method:
as §1, §2

The mark [5] stands for this setting: IC50 in the presence of 10 mM salicin, Table 2, + IMP 0 mM, means ± SEM.
The mark [6] stands for this setting: IC50 of umami substances in the presence of 10 mM salicin, Figure 2B, pretreatment with sample, fixed 10 mM salicin, means ± SEM.
[7] abbreviates: Table 3, pretreatment with sample 80 mM.

Substitutions are numbered along the chain they refer to. Values joined by “and” are separate entries in the source; they are usually repeats but may differ in a detail not shown here. Equal entries are not always repeated. Where two headings read alike, the source gives them in different places. Where a SMILES comes first, the peptide text is derived from it.

On to `OC[C@H]1O[C@@H](Oc2ccc(O)cc2)[C@H](O)[C@@H](O)[C@@H]1O` [arbutin], for which the “Ca2+ response of cells expressing TAS2R16 on stimulation with ligand” value at hTAS2R16 [1] is “increase in Ca^2+”.
In the case of `OC[C@H]1O[C@@H](Oc2ccccc2)[C@H](O)[C@@H](O)[C@@H]1O` [phenyl β-D-glucopyranoside], the “Ca2+ response of cells expressing TAS2R16 on stimulation with ligand” value on hTAS2R16 [1] is listed as “increase in Ca^2+”.
For `CCNC(=O)CC[C@H](N)C(=O)O` [L-Theanine, γ-glutamylethylamide], the “synergistic effect with IMP on suppression of salicin response” value at hTAS2R16 [2] (10 mM salicin, graded IMP below or at 10 mM) is listed as “produce similar synergistic effects with IMP”. In addition, the IC50 on hTAS2R16 [2] (setting [5]) is 77330 ± 50 µM; on hTAS2R16 [2] (setting [6]), 62000 µM and 61700 µM. Also, the “Maximal Response of salicin” value is 0.53 ΔF/F0 at hTAS2R16 [2] (Table 1, pretreatment with sample 10 mM); 0.50 ΔF/F0 on hTAS2R16 [2] (Table 1, pretreatment with sample 30 mM); 0.43 ΔF/F0 at hTAS2R16 [2] (Table 1, pretreatment with sample 80 mM); 0.31 ΔF/F0 on hTAS2R16 [2] (Table 1, pretreatment with sample 100 mM). Besides, the “Maximal Response of salicin, WT” value at hTAS2R16 [2] (setting [7]) was 0.43 ΔF/F0. Also, the “mechanism of antagonism at hTAS2R16” value at hTAS2R16 [2] (from salicin concentration–response curves at graded antagonist concentrations) is “partial insurmountable antagonists”. Moreover, the “attenuation of salicin response by pretreatment, WT receptor” value on hTAS2R16 [2] (salicin 0.003–30 mM, probenecid 0.3 mM, L-theanine 80 mM) is “significantly attenuated”. The detection threshold in the assay with umami taste [3] is recorded as 25 mM. Further, the “Maximal Response of salicin, N96T” value on hTAS2R16 N96T (setting [7]) is reported as 0.66 ΔF/F0. In addition, the “attenuation of salicin response by pretreatment, N96T mutant” value at hTAS2R16 N96T (salicin 0.003–30 mM, probenecid 0.3 mM, Glu-Glu 6 mM, L-theanine 80 mM) was “not in cells expressing the two N96T and P44T mutant receptors”. Moreover, the “detection threshold, times lower than that of MSG” value in the assay on umami taste [4] is “roughly 36 times”. Besides, the “inhibition of Ca2+ response to arbutin” value at hTAS2R16 [1] is recorded as “significantly inhibited”. Further, the “reduction of intracellular Ca2+ influx evoked by salicin” value on hTAS2R16 [1] is listed as “concentration-dependent reduction”. Further, the “inhibition of Ca2+ response to phenyl β-D-glucopyranoside” value on hTAS2R16 [1] is “significantly inhibited”. The “Maximal Response of salicin, P44T” value on hTAS2R16 P44T (setting [7]) was 0.56 ΔF/F0. Besides, at hTAS2R16 P44T (salicin 0.003–30 mM, probenecid 0.3 mM, MSG 80 mM, L-theanine 80 mM), the “attenuation of salicin response by pretreatment, P44T mutant” value was “not in cells expressing the two N96T and P44T mutant receptors”.
On to Gly-Gly, for which, at hTAS2R16 [1], the “inhibition of Ca2+ response to arbutin” value was “not”, the “reduction of intracellular Ca2+ influx evoked by salicin” value is on record as “not” and the “inhibition of Ca2+ response to phenyl β-D-glucopyranoside” value is recorded as “not”.
With `OCc1ccccc1O[C@@H]1O[C@H](CO)[C@@H](O)[C@H](O)[C@H]1O` [Salicin], on hTAS2R16 [2] (Table 1, salicin 0–30 mM, sample 0 mM), the “Maximal Response of salicin” value was 0.51 ΔF/F0 and 0.54 ΔF/F0 and 0.56 ΔF/F0. Further, the EC50 on hTAS2R16 [2] (Table 1, salicin 0–30 mM, sample 0 mM, means ± SEM, read-out: EC50 of salicin) was 1.04 mM (2×) and 920 µM and 890 µM and 900 µM; at hTAS2R16 [2] (Table 3, sample 0 mM, read-out: EC50 of salicin, WT) it was 960 µM and 900 µM and 1040 µM and 1070 µM; on hTAS2R16 N96T (Table 3, sample 0 mM, read-out: EC50 of salicin, N96T) it was 200 µM (2×) and 230 µM and 250 µM and 180 µM; at hTAS2R16 P44T (Table 3, sample 0 mM, read-out: EC50 of salicin, P44T), 690 µM and 750 µM and 640 µM and 620 µM and 680 µM. On hTAS2R16 [2] (Table 3, sample 0 mM), the “Maximal Response of salicin, WT” value is 0.54 ΔF/F0 and 0.56 ΔF/F0 and 0.51 ΔF/F0. Moreover, on hTAS2R16 [2] (salicin 0.003–30 mM), the “intracellular Ca2+ response induced by ligand, WT receptor” value was “induced intracellular Ca^2+ response”. For the same compound, the “Maximal Response of salicin, N96T” value at hTAS2R16 N96T (Table 3, sample 0 mM) was 0.66 ΔF/F0 and 0.63 ΔF/F0 and 0.68 ΔF/F0 and 0.61 ΔF/F0. Also, at hTAS2R16 N96T (salicin 0.003–30 mM), the “intracellular Ca2+ response induced by ligand, N96T mutant” value is given as “induced intracellular Ca^2+ response”. On hTAS2R16 P44T (Table 3, sample 0 mM), the “Maximal Response of salicin, P44T” value was 0.61 ΔF/F0 and 0.59 ΔF/F0 and 0.56 ΔF/F0 and 0.62 ΔF/F0. Besides, on hTAS2R16 P44T (salicin 0.003–30 mM), the “intracellular Ca2+ response induced by ligand, P44T mutant” value is “induced intracellular Ca^2+ response”.
With `N[C@@H](CCC(=O)O)C(=O)N[C@@H](CCC(=O)O)C(=O)O` [Glu-Glu] (H-Glu-Glu-OH), the results for the IC50 on hTAS2R16 [2] (setting [5]) and on hTAS2R16 [2] (setting [6]) were 7250 ± 20 µM and 8620 ± 30 µM, respectively.

The IC50 is the point on the concentration scale where inhibition reaches its midpoint. As a reminder, the EC50 is the concentration giving half of the maximal effect.

The values above are taken from publication PMC7582725, “Suppression of hTAS2R16 Signaling by Umami Substances” (International Journal of Molecular Sciences, 2020).
